{"source": "paper PMC6290777", "about": "“Inhalation of the prodrug PI3K inhibitor CL27c improves lung function in asthma and fibrosis” (Nature Communications, 2018)", "key": {"[1]": {"tested_on": "Akt phosphorylation (Ser473) in CLL cells", "test": "Akt phosphorylation in CLL cells stimulated with anti-IgM", "format": "cell-based, human", "settings": "CL27c 10 nM–10 µM", "procedure": "CLL cells (#Hs 505.T, ATCC® CRL-7306™) were cultured with RPMI additioned with 10% FBS and 100 μg/ml penicillin and streptomycin. The day of the assay CLL cells were seeded in 96-well plate at a concentration of 7 × 10^4 cells/ml in starving medium, RPMI free. The cells were starved for 6 h and subsequently pretreated for 1.5 h with CL27c at different concentrations. The cells were stimulated for 15 min with 15 μg/ml of goat anti-Human IgM-MU chain specific antibody (Sigma-Aldrich #I0759-1MG) and proteins were extracted with Laemmli buffer.\nFor all cell types, phosphorylated Akt (P-Akt, Ser 473, 1:100, Cell Signaling Technology #4060) production was detected by western blot analysis and quantified with ChemiDoc™ XRS system. P-Akt signals are normalized on endogenous. For the calculation of EC50 values, a percentage of residual P-Akt was calculated for each inhibitor concentration by using the control vehicle as 100%. To derive the EC50, all data were plotted on a dose response curve (Graph Pad software) and the EC50 was calculated by using the non-linear regression fit (equation [log agonist] vs response–variable slope).\nSupplementary Figure 3: Inhibition of Akt phosphorylation at Ser473 (pAkt473) […]\npanel). […] The respective EC50 was calculated by using nonlinear"}, "[2]": {"tested_on": "OVA-induced acute allergic asthma", "test": "OVA-induced acute allergic asthma model", "format": "in vivo, BALB/c mice", "procedure": "On Days 1 and 14, BALB/c mice (6–8 weeks) received an intraperitoneal injection (i.p.) of a solution containing 0.5 mg/ml OVA and 5 mg/ml Alum (described in Fig. 2). Untreated controls were injected with a solution of 5 mg/ml Alum. […] Untreated control groups included mice challenged with PBS alone. On day 29, mice were sacrificed, and samples were collected for further analysis.\nBALF was performed to obtain leukocytes from alveolar space. The trachea was exposed and a 1.7-mm-outside-diameter polyethylene catheter was inserted. BAL was performed by washing the lungs three-times with three different 500 µl aliquots of PBS. BALF samples were centrifuged at 600 × g for 10 min at 4 °C on a histology glass slide and stained with Diff Quick (MICROPTIC, #DQ-ST). The number of leukocytes and differential counts of different population were obtained evaluating the percentage leukocyte populations over the total cell number.\nIL-5, IL-13, eotaxin, TGF-β, KC, IL-17A, and MCP-1 levels in the BALF and anti-OVA IgE levels in serum were measured by ELISA technique using commercial DuoSet kits R&D Systems according to the instructions of the manufacturer. Results were expressed in levels of cytokines per ml of […] (pg/ml) or arbitrary units (A.U.).\nImmunohistochemistry for CD18 was performed using the streptavidin-biotin-peroxidase method in formalin-fixed, paraffin-embedded tissue sections (5 µm thick) mounted on poly-L-lysine-coated microscope slides. Lung cross-sections were deparaffinized and rehydrated through xylene and graded alcohols. After antigen retrieval, endogenous peroxidase was blocked (15 min) with 3% (v/v) hydrogen peroxide and washed in phosphate-buffered saline (PBS). Sections were incubated overnight (4 °C) with primary rabbit anti-CD18 antibody (Acris Antibodies GmbH, Germany, Cat. Number B0842-1) diluted 1:400 in PBS plus bovine serum albumin (PBS-BSA) or rabbit anti/PAkt (S473) diluted 1:100 in PBS/BSA. The slides were then incubated with biotinylated goat anti-rabbit antibody (Dako Agilent Pathology Solution, USA) diluted 1:1000 in PBS/BSA. After washing, the slides were incubated with avidin-biotin-horseradish peroxidase conjugate (Dako Agilent Pathology Solution, USA) for 30 min, according to the manufacturer’s instructions. CD18 and PAkt-positive cells were visualized with the chromogen 3,3′-diaminobenzidine (DAKO liquid DAB + substrate chromogen system, CA, USA). Slides were counterstained with Harry’s hematoxylin, dehydrated in a graded alcohol series, cleared in xylene, and cover slipped.\nLung, liver, and heart samples were collected for western blot detection of akt phosphorilation levels. Protein samples were resolved by 10% SDS-PAGE and transferred on to PVDF (Immobilon™-P) membranes. The membranes were blocked with 5% BSA in 1x TBS with 0.3% Tween 20 for 30 min at […]. Then, the membranes were incubated overnight at 4 °C with primary antibodies (phosphorylated Akt serine 473, 1:1000, Cell Signaling Technology, Cat. Number 4060) and 1 h with HRP-conjugated secondary antibody (1:10000). The blots were visualized in ECL solution for 1 min and images were captured on Luminescent Image Analyser (ChemiDoc Imaging Systems, Bio-Rad Laboratories, USA). For loading control, the blots were striped and reassessed with pan Akt (1:1000) antibody. For quantification, specific phosphorylation was calculated as the ratio of signals for phosphorylated Akt to the signal of total Akt detected. Values of unstimulated samples were set to 1.0. Uncropped scans of the most important blots are provided as a supplementary figure in the Supplementary Information (Supplementary Fig. 15)."}}}
{"smiles": "COC(=O)c1cccc(Cn2cc(-c3cccc4c(=O)cc(N5CCOCC5)[nH]c34)nn2)c1", "note": "[CL27c]", "values": [{"measurement": "Akt/PKB phosphorylation", "setting": "[1]", "value": "readily reduced Akt/PKB phosphorylation"}, {"measurement": "TGF-β in lung tissue lysates", "setting": "[2]; OVA-challenged mice as described in Fig. 2, inhaled CL27c", "value": "reduction of transforming growth factor-β (TGF-β) and IL-13 to the level detected in unsensitized controls"}, {"measurement": "IL-10 in lung tissue lysates", "setting": "[2]; OVA-challenged mice as described in Figure 2, inhaled CL27c", "value": "increased pulmonary abundance of IL-10"}, {"measurement": "efficacy on OVA-induced acute asthma", "setting": "[2]; highest dose, 20 mg/ml", "value": "inconsistent outcomes"}, {"measurement": "IL-5 and IL-13 levels in lung tissue", "setting": "[2]; inhaled CL27c 2 mg/ml", "value": "restored both IL-5 and IL-13 to the levels detected in unsensitized control mice"}, {"measurement": "reduction of eosinophils accumulation in BALF", "setting": "[2]; inhaled CL27c 2 mg/ml", "value": 70, "unit": "%"}, {"measurement": "reduction of lymphocytes accumulation in BALF", "setting": "[2]; inhaled CL27c 2 mg/ml", "value": 72, "unit": "%"}, {"measurement": "reduction of macrophages accumulation in BALF", "setting": "[2]; inhaled CL27c 2 mg/ml", "value": 60, "unit": "%"}, {"measurement": "reduction of neutrophils accumulation in BALF", "setting": "[2]; inhaled CL27c 2 mg/ml", "value": 68, "unit": "%"}, {"measurement": "Akt phosphorylation in lung lysates and sections", "setting": "[2]; inhaled CL27c 2 mg/ml, day 29", "value": "decrease in Akt phosphorylation"}, {"measurement": "CD18-positive leukocyte recruitment to the lung", "setting": "[2]; inhaled CL27c 2 mg/ml, immunohistochemistry", "value": "reduced leukocyte recruitment"}, {"measurement": "efficacy on OVA-induced acute asthma", "setting": "[2]; lowest dose, 0.2 mg/ml", "value": "no efficacy"}]}
